# Data: US12275685B2, “Oligo-benzamide analogs and their use in cancer treatment” (Board of Regents, The University of Texas System, priority 2018, dated 2025)
# Columns and labels:
# [1] = test system: pancreatic cancer MiaPaca cells; assay: ER stress in pancreatic cancer cells by electron microscopy; assay type: cell-based
# Text: (§1) The basal level of expression of endoplasmic reticulum stress and unfolded protein response correlates with TK41 activity (FIG. 28). Modulation of the level of these stress proteins affects the activity of TK41. Thus, the basal level of expression of endoplasmic reticulum stress and unfolded protein response proteins may serve as a biomarker to predict response to TK41. […] Without wishing to be bound by any particular theory, the mechanism of action of TK41 may operate comprise targeting either ER or TLX and inducing endoplasmic reticulum stress, subsequent apoptosis, and blocking autophagic fusion (FIG. 30).
# TNBC cells [2] = assay: De novo protein synthesis, puromycin labeled nascent proteins; assay type: cell-based; details: 4 h and 16 h
# Text: Total protein is shown on right with coomassie blue staining.
# as §1
# [3] = test system: xenografts of SUM-159 with LIPA KO; assay: SUM-159 LIPA KO xenografts; assay type: in vivo, SCID mice; details: 10 mg/kg daily
# Text: FIGS. 37A-J: The molecular target of ERX-41 in TNBC is LIPA. […] (FIG. 37B) Knockout clones of LIPA, ACACA, TMEM208, SOAT1 and ARID1A were generated in MDA-MB-231 cells and evaluated for response to ERX-41 using doseresponse curves using CellTiter-Glo assays in vitro. (FIGS. 37C-D) Effect of knockout of LIPA in SUM-159 (FIG. 37C) and MDA-MB436 (FIG. 37D) on dose response curve to ERX-41 using CellTiter-Glo assays in vitro. (FIGS. 37E-F) Dose response curves of SUM-159 parental cells and clones with LIPA KO to thapsigargin (FIG. 37E) and paclitaxel (FIG. 37F). (FIGS. 37G-H) Live cell imaging studies with SYTOX Green to examine ability of 1 μM ERX-41 to induce cell death in parental SUM-159 and SUM-159 clones with LIPA KO, with quantitation (FIG. 37G) and time-lapsed photomicrographs at 0 h and 30 h ((FIG. 37H). (FIGS. 37I-J) SCID mice were implanted with either parental SUM-159 or SUM-159 clones with LIPA KO (n=6, each group) and tumors were allowed to establish (150 mm^3). Following daily intraperitoneal administration of 10 mg/kg ERX-41, tumor sizes were measured and graphed (FIG. 37I), along with mice body weights (FIG. 37J). *p<0.05. **p<0.01; ***p<0.001.
# The molecular target of ERX-41 in TNBC is LIPA. […] Knockout clones of LIPA, SLC5A3, SMAP2, TMEM208, SOAT1 and ARID1A were generated in multiple TNBC cells and evaluated for response to ERX-41.
# TNBC cells [4] = assay: Live cell imaging with SYTOX Green, TNBC; assay type: cell-based; details: within 30 hours of treatment
# Text: (§2) FIGS. 34A-C: Dose response curve of ERX-41 in multiple TNBC. cell lines using WST-1 assays (FIG. 34A) and CellTiter-Glo assays (FIG. 34B). […] Quantification of the number of dead cells over time seen with live cell imaging in MDAMB-231 and HMEC cells is shown.
# (§3) To evaluate the generalizability of the inventors' findings, they evaluated ERX-41 in a large number of TNBC and ERa-positive cell lines.
# HMEC cells = assay: Live cell imaging with SYTOX Green, HMEC; assay type: cell-based, human
# Text: as §2, §3
smiles,measurement,setting,value
CC(C)COc1cc(C(=O)Nc2ccc(C(=O)N[C@H]3CC[C@H](C)CC3)cc2OCC(C)C)ccc1NC(=O)c1ccc([N+](=O)[O-])c(OCCO)c1 [TK41],induction of endoplasmic reticulum stress in MiaPaca,[1],Endoplasmic reticulum stress was also induced
same,de novo protein synthesis,TNBC cells [2],shuts down de novo protein synthesis
same,de novo protein synthesis,TNBC cells [2]; listed as TK-41,decreases global new protein synthesis
same,response of SUM-159 LIPA KO xenografts,[3],did not respond
same,"cell death, share of cells",TNBC cells [4],> 90%
same,cell death in HMEC,HMEC cells,did not significantly induce cell death
